Experimental data: patent publication EP4631938A1, “NITROGEN-CONTAINING HETEROCYCLE WITH SEROTONIN RECEPTOR-BINDING ACTIVITY AND CARBOCYCLIC DERIVATIVE” (Shionogi & Co., Ltd, priority 2022, dated 2024)

Key:
[1] = biological target: T1, human recombinant 5-HT2A receptor (Homo sapiens, UniProt P28223); assay: Test Example 1-2: 5-HT2A receptor binding inhibition test ([3H]-Ketanserin; non-specific ligand Ketanserin); details: [3H]-Ketanserin; non-specific binding with 500 µmol/L Ketanserin; room temperature (25°C), 1.5 hours; read-out: h 5-HT2A Ki
T1 construct: expressed in transfected cells; host or cells: Jump-In HEK cells (membrane preparation)
Description: The Kd value is calculated when the lot of the cell membrane is changed. 1 mmol/L non-specific binding calculating compound dissolved in DMSO or DMSO is previously dispensed to the microplate by 0.5 µL, and the cell membrane is diluted with an Assay buffer. The radioactive ligand solution is diluted step by step, and counts are checked with a liquid scintillator. The Assay buffer containing diluted cell membranes is dispensed by 50 µL/well into the microplate. The radioactive ligand solution is then dispensed by 50 µL/well into the microplate and the plate is sealed. The microplate is allowed to stand for 1.5 hours at room temperature (25°C). During this time, 50 mmol/L Tris-HCl (pH 7.4) is dispensed by 50 µL/well into the UniFilter plate and allowed to stand at 4°C for 1 hour or longer. Thereafter, filtration is performed with a Cell Harvester (PerkinElmer). The radioactive ligand solution is dispensed by 10 µL/well into empty wells of the UniFilter plate. After drying the UniFilter plate at room temperature, MicroScinti20 is dispensed by 50 µL/well into the UniFilter plate, and the plate is sealed. UniFilter plate is allowed to stand at room temperature overnight. The radioactivity of [^3H]-Ketanserin bound to the 5-HT2A receptor is measured using Microbeta2 (PerkinElmer) at a measurement time of 1 min/well. The Saturation curve is drawn from the measured value, and the Kd value is calculated from the slope of the Scatchard Plot.
A compound solution dissolved in DMSO is dispensed to a microplate by 0.5 µL, and a cell membrane and a hot ligand are each diluted with an Assay buffer. The Assay buffer containing diluted cell membrane is then dispensed by 50 µL/well into the microplate. The radioactive ligand solution is then dispensed by 50 µL/well into the microplate and the plate is sealed. Thereafter, the microplate is allowed to stand at room temperature (25°C) for 1.5 hours. During this time, 50 mmol/L Tris-HCl (pH 7.4) is dispensed by 50 µL/well into the UniFilter plate and allowed to stand at 4°C for 1 hour or longer. Thereafter, filtration is performed with a Cell Harvester (PerkinElmer). After drying the UniFilter plate at room temperature, MicroScinti20 is dispensed by 50 µL/well into the UniFilter plate, and the plate is sealed. UniFilter plate is allowed to stand at room temperature overnight. The radioactivity of [^3H]-Ketanserin bound to the 5-HT2A receptor is measured using Microbeta2 (PerkinElmer) at a measurement time of 1 min/well. Non-specific binding is calculated from the radioactivity of [^3H]-Ketanserin in the presence of 500 µmol/L Ketanserin of unlabeled ligand, and total binding is calculated from the radioactivity of [^3H]-Ketanserin in the absence of the compound of the present invention (Vehicle). Finally, the Ki value is calculated from the dose-response curve.
(§1) (The binding activity of the compound according to the present invention is calculated from the following binding inhibition rate (%).) Inhibition rate (%) = [1−(c−a)/(b−a)] × 100 [formula] • a; average cpm of non-specific binding • b; average cpm of total binding • c; cpm in the presence of the test compound
(§2) The compounds of the present invention were tested essentially as described above.

[2] = biological target: T2, human recombinant 5-HT2C receptor (Homo sapiens, UniProt P28335); assay: Test Example 2: 5-HT2C receptor binding inhibition test ([3H]-Mesulergine; non-specific ligand Serotonin HCl); details: human serotonin 5-HT2C receptor binding activity
T2 construct: expressed in transfected cells; host or cells: Jump-In HEK cells (membrane preparation)
T2 sequence (P28335 33-458): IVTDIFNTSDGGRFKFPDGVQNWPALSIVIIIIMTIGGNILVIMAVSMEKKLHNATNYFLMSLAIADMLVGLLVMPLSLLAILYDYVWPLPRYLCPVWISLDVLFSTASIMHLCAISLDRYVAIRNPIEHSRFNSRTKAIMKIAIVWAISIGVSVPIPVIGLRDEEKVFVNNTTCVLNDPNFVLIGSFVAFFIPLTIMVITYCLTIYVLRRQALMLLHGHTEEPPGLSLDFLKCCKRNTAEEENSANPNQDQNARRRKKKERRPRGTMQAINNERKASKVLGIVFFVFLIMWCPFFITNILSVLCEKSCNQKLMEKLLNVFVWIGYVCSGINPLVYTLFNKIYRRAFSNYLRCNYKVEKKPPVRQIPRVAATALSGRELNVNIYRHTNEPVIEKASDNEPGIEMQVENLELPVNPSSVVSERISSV
Description: The Kd value is calculated when the lot of the cell membrane is changed. 1 mmol/L non-specific binding calculating compound dissolved in DMSO or DMSO is previously dispensed to the microplate by 0.5 µL, and the cell membrane is diluted with an Assay buffer. The radioactive ligand solution is diluted step by step, and counts are checked with a liquid scintillator. The Assay buffer containing diluted cell membranes is dispensed by 50 µL/well into the microplate. The radioactive ligand solution is then dispensed by 50 µL/well into the microplate and the plate is sealed. The microplate is allowed to stand at 37°C for 2 hours. During this time, 50 mmol/L Tris-HCl (pH 7.4) is dispensed by 50 µL/well into the GF/B UniFilter plate and allowed to stand at 4°C for 1 hour or longer. Thereafter, filtration is performed with a Cell Harvester (PerkinElmer). The radioactive ligand solution is dispensed by 10 µL/well into empty wells of the GF/B UniFilter plate. After drying the GF/B UniFilter plate at room temperature, MicroScinti20 is dispensed by 50 µL/well into the GF/B UniFilter plate, and the plate is sealed. GF/B UniFilter plate is allowed to stand at room temperature overnight. The radioactivity of [^3H]-Mesulergine bound to the 5-HT2C receptor is measured using Microbeta2 (PerkinElmer) at a measurement time of 1 min/well. The Saturation curve is drawn from the measured value, and the Kd value is calculated from the slope of the Scatchard Plot.
A compound solution dissolved in DMSO is dispensed to a microplate by 0.5 µL, and a cell membrane and a hot ligand are each diluted with an Assay buffer. The Assay buffer containing diluted cell membrane is then dispensed by 50 µL/well into the microplate. The radioactive ligand solution is then dispensed by 50 µL/well into the microplate and the plate is sealed. The microplate is then allowed to stand at 37°C for 2 hours. During this time, 50 mmol/L Tris-HCl (pH 7.4) is dispensed by 50 µL/well into the GF/B UniFilter plate and allowed to stand at 4°C for 1 hour or longer. Thereafter, filtration is performed with a Cell Harvester (PerkinElmer). After drying the GF/B UniFilter plate at room temperature, MicroScinti20 is dispensed by 50 µL/well into the GF/B UniFilter plate, and the plate is sealed. GF/B UniFilter plate is allowed to stand at room temperature overnight. The radioactivity of [^3H]-Mesulergine bound to the 5-HT2C receptor is measured using Microbeta2 (PerkinElmer) at a measurement time of 1 min/well. Non-specific binding is calculated from the radioactivity of [^3H]-Mesulergine in the presence of 500 µmol/L Serotonin HCl of unlabeled ligand, and total binding is calculated from the radioactivity of [^3H]-Mesulergine in the absence of the compound of the present invention (Vehicle). Finally, the Ki value is calculated from the dose-response curve.
as §1, §2

T1 sequence (P28223 whole entry): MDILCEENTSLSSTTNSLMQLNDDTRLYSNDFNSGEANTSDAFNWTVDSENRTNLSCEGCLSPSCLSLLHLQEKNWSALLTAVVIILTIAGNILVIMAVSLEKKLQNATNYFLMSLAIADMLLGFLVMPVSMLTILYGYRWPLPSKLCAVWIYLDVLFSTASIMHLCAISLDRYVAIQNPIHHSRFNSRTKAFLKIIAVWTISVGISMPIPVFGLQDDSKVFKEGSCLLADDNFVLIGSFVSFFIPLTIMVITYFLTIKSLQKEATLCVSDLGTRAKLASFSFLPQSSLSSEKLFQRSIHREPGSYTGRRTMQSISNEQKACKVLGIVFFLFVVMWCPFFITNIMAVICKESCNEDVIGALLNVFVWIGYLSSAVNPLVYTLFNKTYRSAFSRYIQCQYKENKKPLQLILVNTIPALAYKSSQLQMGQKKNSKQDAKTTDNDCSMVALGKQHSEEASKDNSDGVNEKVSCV

| Compound | Ki [1] | Ki [2] |
| --- | --- | --- |
| Cn1ncc(C#N)c1-c1nc(Nc2ccc(-c3ccc(F)cc3)cn2)c(F)cc1OCCO [Compound I-190] | 0.493 nM | 9.08 nM |
| COCc1nc(C)c(-c2cc(Nc3ncc(-c4ncc(C(F)(F)F)s4)cc3Cl)ncc2OCCO)c(C)n1 [Compound I-329] | 0.896 nM | 0.282 nM |
| COC(=O)c1ccc(-c2cc(Nc3ncc(C(F)(F)F)cc3F)ncc2OCCO)c(C)c1 [Compound I-370] | 1.03 nM | 86.8 nM |
| Cn1ncc(Br)c1-c1cc(Nc2nc3ccc(F)cc3s2)c(F)cc1OCCO [Compound I-405] | 0.274 nM | 0.293 nM |
| Cc1nc(C)c(-c2nc(Nc3ccc(OC(F)(F)F)cc3)ncc2OCCO)c(C)n1 [Compound I-357] | 0.635 nM | 3.07 nM |
| COCc1nc(C)c(-c2cc(Nc3ccc(C(F)(F)F)c(C)n3)ncc2OCCO)c(C)n1 [Compound I-248] | 0.794 nM | 4.78 nM |
| Cn1ncc(Br)c1-c1cc(Nc2ncc(OC(F)(F)F)cc2F)c(F)cc1OCCO [Compound I-168] | 0.248 nM | 0.162 nM |
| COCc1nc(C)c(-c2nc(Nc3ccc(C(F)(F)F)c(OC)n3)c(F)cc2OCCO)c(C)n1 [Compound I-394] | 1.34 nM | 2.16 nM |
| COCc1nc(C)c(-c2cc(Nc3ncc(OC4CC(F)(F)C4)cc3Cl)ncc2OCCO)c(C)n1 [Compound I-332] | 5.58 nM | 3.12 nM |
| Cc1nc(C)c(-c2nc(Nc3ccc(OC(F)(F)F)c(C)n3)c(F)cc2OCCO)c(C)n1 [Compound I-383] | 2.57 nM | 4.59 nM |
| O=C1OCc2c1cccc2-c1cc(Nc2ncc(C(F)(F)F)cc2F)ncc1OCCO [Compound I-360] | 1.22 nM | 54.8 nM |
| COCc1nc(C)c(-c2cc(Nc3ccc(-c4ccc(F)cc4)cn3)ncc2OCCO)c(C)n1 [Compound I-272] | 0.343 nM | 1.4 nM |
| Cc1cnn(C)c1-c1cc(Nc2ncc(Cl)cc2F)c(F)cc1OCCO [Compound I-160] | 0.21 nM | 3.01 nM |
| Cn1ncc(Br)c1-c1cc(Nc2ccc(Cl)cn2)c(Cl)cc1OCCO [Compound I-401] | 0.211 nM | 0.849 nM |
| Cc1nc(C)c(-c2cc(Nc3ncc(Cl)cc3C)c(F)cc2OCCO)c(C)n1 [Compound I-173] | 1.42 nM | 5.11 nM |
| Cn1ncc(Br)c1-c1nc(Nc2ccc(C#N)cc2F)ncc1OCCO [Compound I-354] | 0.319 nM | 8.53 nM |

Now from value to molecule:

| Ki [1] | Ki [2] | Compound |
| --- | --- | --- |
| 0.204 nM | 6.51 nM | Cn1ncc(Br)c1-c1nc(Nc2ccc(Cl)c(C(F)(F)F)c2)ncc1OCCO [Compound I-350] |
| 0.325 nM | 2.09 nM | Cn1ncc(Cl)c1-c1cc(Nc2ncc(F)cc2F)c(F)cc1OCCO [Compound I-164] |
| 1.27 nM | 5.67 nM | Cc1nc(C)c(-c2cc(Nc3ncc(C(F)(F)F)cc3F)ncc2OCCO)c(C)n1 [Compound I-306] |
| 0.6 nM | 3.22 nM | Cn1ncc(Br)c1-c1cc(Nc2ncc(OC(F)F)cn2)ncc1OCCO [Compound I-286] |
| 0.219 nM | 4.5 nM | Cn1ncc(Br)c1-c1cc(Nc2ncc(Cl)cn2)ncc1OCCO [Compound I-274] |
| 0.259 nM | 3.67 nM | Cc1cnn(C)c1-c1cc(Nc2ccc(OC(F)(F)F)cn2)ncc1OCCO [Compound I-293] |
| 1.74 nM | 2.66 nM | COCCc1nc(C)c(-c2cc(Nc3ncc(C(F)(F)F)cc3Cl)ncc2OCCO)c(C)n1 [Compound I-217] |
| 0.305 nM | 3.63 nM | Cn1ncc(Cl)c1-c1cc(Nc2ncc(OCC(F)F)cc2F)ncc1OCCO [Compound I-321] |
| 0.361 nM | 1.13 nM | Cn1ncc(Cl)c1-c1cc(Nc2ncc(C(F)(F)F)cn2)c(F)cc1OCCO [Compound I-161] |
| 0.847 nM | 9.14 nM | Cc1cc(CO)ccc1-c1cc(Nc2ncc(C(F)(F)F)cc2F)ncc1OCCO [Compound I-372] |
| 1.22 nM | 3.89 nM | Cc1nc(OC2CC2)nc(C)c1-c1cc(Nc2ncc(C(F)(F)F)cc2Cl)ncc1OCCO [Compound I-212] |
| 1.97 nM | 1.82 nM | Cc1nc(COC(F)F)nc(C)c1-c1cc(Nc2ncc(C(F)(F)F)cc2Cl)ncc1OCCO [Compound I-203] |
| 0.386 nM | 3.34 nM | Cc1cnn(C)c1-c1cc(Nc2ncc(OC(F)F)cc2F)ncc1OCCO [Compound I-178] |
| 0.26 nM | 6.63 nM | Cn1ncc(Br)c1-c1nc(Nc2ccc(Cl)c(Cl)c2)ncc1OCCO [Compound I-344] |
| 0.271 nM | 0.352 nM | Cn1ncc(Br)c1-c1cc(Nc2ncc(OC(F)F)cc2F)ncc1OCCO [Compound I-299] |
| 1.81 nM | 5.53 nM | Cc1nc(C2CCO2)nc(C)c1-c1cc(Nc2ncc(C(F)(F)F)cc2Cl)ncc1OCCO (racemic) [Compound I-216] |
| 0.438 nM | 17.6 nM | Cn1ncc(Br)c1-c1nc(Nc2ccc(C(F)(F)F)nc2)c(F)cc1OCCO [Compound I-290] |
| 0.295 nM | 2.85 nM | Cn1ncc(Br)c1-c1cc(Nc2ncc(OC(F)(F)F)cn2)cnc1OCCO [Compound I-269] |
| 0.299 nM | 7.69 nM | Cn1ncc(Br)c1-c1cc(Nc2nc3ccccc3s2)ncc1OCCO [Compound I-285] |
| 0.432 nM | 6.41 nM | Cn1ncc(Cl)c1-c1cc(Nc2ncc(C(F)(F)F)cn2)ncc1OCCO [Compound I-311] |
